In patent US9375496B2, “Halogenated compounds for cancer imaging and treatment and methods for their use” (The University of British Columbia, priority 2013, dated 2016):

Assays:
AR = target: T1, AR (Homo sapiens, UniProt P10275, T878A); assay: PSA(6.1 kb)-luciferase reporter assay in LNCaP cells (androgen-induced AR transcriptional activity); type: cell-based
T1 construct: LNCaP cells with endogenous AR; endogenous in cells; host or cells: LNCaP
T1 sequence (P10275 1-920 T878A): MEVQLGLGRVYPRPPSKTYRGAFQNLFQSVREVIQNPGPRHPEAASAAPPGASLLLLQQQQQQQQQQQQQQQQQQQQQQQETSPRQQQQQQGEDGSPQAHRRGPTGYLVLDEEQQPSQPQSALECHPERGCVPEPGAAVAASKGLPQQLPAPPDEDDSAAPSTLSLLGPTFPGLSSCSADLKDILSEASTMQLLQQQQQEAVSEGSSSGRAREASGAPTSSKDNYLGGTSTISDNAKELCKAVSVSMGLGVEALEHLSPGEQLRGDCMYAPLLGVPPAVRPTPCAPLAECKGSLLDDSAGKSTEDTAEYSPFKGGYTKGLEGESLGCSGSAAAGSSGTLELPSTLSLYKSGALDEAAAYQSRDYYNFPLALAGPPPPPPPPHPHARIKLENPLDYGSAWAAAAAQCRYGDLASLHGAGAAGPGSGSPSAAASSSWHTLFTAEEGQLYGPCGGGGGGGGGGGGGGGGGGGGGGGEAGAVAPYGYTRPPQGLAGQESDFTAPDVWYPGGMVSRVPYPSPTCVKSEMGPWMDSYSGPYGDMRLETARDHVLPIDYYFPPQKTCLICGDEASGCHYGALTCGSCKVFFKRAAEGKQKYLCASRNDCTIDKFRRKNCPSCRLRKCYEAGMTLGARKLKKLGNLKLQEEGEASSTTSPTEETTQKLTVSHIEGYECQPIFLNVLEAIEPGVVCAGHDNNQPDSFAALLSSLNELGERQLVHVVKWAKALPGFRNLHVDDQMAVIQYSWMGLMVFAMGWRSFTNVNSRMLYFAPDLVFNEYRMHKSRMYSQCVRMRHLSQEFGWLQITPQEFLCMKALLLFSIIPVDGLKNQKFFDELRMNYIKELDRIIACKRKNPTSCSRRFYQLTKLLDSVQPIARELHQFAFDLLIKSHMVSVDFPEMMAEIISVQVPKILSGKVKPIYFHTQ
Protocol: The PSA-luciferase (6.1 kb) reporter contains functional AREs to which AR binds in response to androgen to induce luciferase activity. LNCaP cells were transfected with the PSA(6.1 kb)-luciferase reporter for 24 h, and then treated with indicated concentration of 8d (also referred as EPI-iodide or iodinated EPI) with synthetic androgen, R1881 (1 nM) for 24 h. After 24 h of incubation with R1881, the cells were harvested, and relative luciferase activities were determined (FIG. 1A). To determine the IC50, treatments were normalized to the predicted maximal activity induction (in the absence of test compounds, vehicle only) (FIG. 1B).
To measure effect on AR, after the LNCaP cells were transfected with the PSA(6.1 kb)-luciferase reporter for 24 h, they were then treated with DMSO, 5 μM MDV3100, 25 μM Z (also referred to as EPI-002 or EPI), or 1.9 μM 8d with or without 1 nM R1881 for 24 h (FIG. 2A).
LNCaP cells were transiently transfected with PSA (6.1 kb)-luciferase for 24 h prior to pre-treatment with compounds of the invention (e.g., compounds 9d, 10d, 11d) ranging in concentration from 62.5 ng/ml to 1.5 ug/ml for 1 hour before the addition of vehicle, or synthetic androgen, R1881 (1 nM) to induce luciferase production. After 24 h of incubation with R1881, the cells were harvested, and relative luciferase activities were determined. To determine the IC50, treatments were normalized to the predicted maximal activity induction (in the absence of test compounds, vehicle only) (FIG. 1B).

recombinant LBD of GR = target: T2, recombinant LBD of GR (Homo sapiens, UniProt P04150); assay: Competitive ligand-binding assay (fluorescent polarization), recombinant GR LBD; settings: 1 nM fluorescently labeled ligand, 5 h incubation, serial dilution
T2 sequence (P04150 524-758 limits assumed): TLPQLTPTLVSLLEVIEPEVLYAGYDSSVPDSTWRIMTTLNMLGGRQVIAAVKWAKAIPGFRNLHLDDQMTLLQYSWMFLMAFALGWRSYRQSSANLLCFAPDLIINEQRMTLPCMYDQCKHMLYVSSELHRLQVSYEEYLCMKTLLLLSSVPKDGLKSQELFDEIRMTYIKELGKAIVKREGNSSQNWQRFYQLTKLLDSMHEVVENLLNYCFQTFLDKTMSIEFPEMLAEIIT
Protocol: Competitive ligand-binding assays to detect the displacement of fluorescently labeled ligand from recombinant LBDs (ligand binding domains) of AR, PR, GR and estrogen receptor (ER) by R1881, MDV3100, Z (also referred to as EPI-002 or EPI) or 8d (also referred to as iodinated EPI) were performed. FIGS. 14A-14E display competitive ligand-binding curves to indicate whether R1881, Z, antiandrogens (enzalutamide, hydroxyflutamide, bicalutamide) or 8d can displace 1 nM fluorescently labeled cognant ligand from recombinant LBDs of steroid hormone receptors by using fluorescent polarization (mP). Serial dilution was performed for each test compound. Mixtures were incubated for 5 h before measurement of fluorescent polarization.

Q: Which “androgen-induced PSA luciferase activity” value (AR; 1.9 μM 8d, 1 nM R1881, 24 h, LNCaP cells (FIG. 2A)) does the source give for `CC(C)(c1ccc(OC[C@H](O)CO)cc1)c1ccc(OC[C@H](O)CCl)c(I)c1` [Compound 8d, (R)-3-(4-(2-(4-((S)-3-chloro-2-hydroxypropoxy)-3-iodophenyl)propan-2-yl)phenoxy)propane-1,2-diol] here?
A: strongly inhibited

Q: What about the IC50 (AR; LNCaP cells, PSA(6.1 kb)-luciferase, R1881 1 nM 24 h, representative experiment, read-out: IC50 for inhibition of AR transcriptional activity) of the same compound?
A: 1.17 ± 0.22 µM

Q: And the “binding to LBD of GR (displacement of fluorescently labeled ligand)” value (recombinant LBD of GR)?
A: does not bind
